Molecules are shown by their SMILES.

What all share (format): cell-based
Experiment [1] deals with Human osteosarcoma U20S cells. The experiment can be described thus: Assay to measure lysosome and autolysosome formation (acidic vesicle formation, LysoView/LysoTracker staining). Particulars: for activation at 0.8 µM: Homo sapiens, U2OS cells, concentration of 0.8 μM, read-out: Activity (percentage increase in acidic vesicle formation over the DMSO-treated control), Table 2; for increase in acidic vesicle formation: U20S cells, relative to DMSO-treated control (10 μM). The method, boiled down: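 U2OS cells treated with compounds in DMSO for 24 h, then stained 45 min at 37 °C with 1× LysoView 633 or 50 nM LysoTracker Deep Red, with Hoechst nuclear counterstain. Live-cell fluorescence imaging at 37 °C; acidic vesicle formation judged against DMSO-treated control.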

For another experiment, the system named is SH-SY5Y cells. Nature of the experiment: Acidic vesicle formation in SH-SY5Y cells (LysoTracker Deep Red). Particulars: 24 hours. As to the method:
This is evidence for significant stimulation of autophagy by this compound under these conditions. A brief description of the procedure is outlined here: • Day 1: Cells were seeded at 15K cells/well in the middle 60 wells of 6×96 well Cellvis imaging plates • Day 2: Media was replaced with 90 μl of DMEM/F12 (+10% FBS/1% P/S) containing NucBlue Live and the cells were treated with 10 μl of compound (10× concentrated) in triplicate for 24 hours. • Day3: Treatment was removed and cells were incubated for 30 minutes with LysoTracker™ Deep Red dye. Cells were washed twice with media and immediately imaged on EVOS M7000 at x20 (6 images per well, 30 minutes imaging time/plate). Images were analysed using Celleste Image analysis software.

Experiment [2] concerns U2OS cell line stabling expressing RFP-eGFP-hLC3b. The experiment can be described thus: Tandem reporter assay (autophagic flux, RFP-only puncta). Particulars: Homo sapiens, RFP-only puncta as percentage of DMSO-treated control, 24 hours; for activity at 1 µM: read-out: Autolysosome % DMSO activity (compound concentration of 1 μM); for activity at 10 µM: read-out: Autolysosome % DMSO activity (compound concentration of 10 μM). As to the method:
Selected compounds of this invention were also assessed for their ability to stimulate autophagy using a U20S cell line stabling expressing RFP-eGFP-hLC3b (a tandem reporter cell line). During the process of autophagy, the cargo to be degraded is first enveloped by organelles called autophagosomes. These autophagosomes then fuse with lysosomes, causing them to become acidified and their digestive enzymes to become activated. The term “autophagic flux” is used to represent the dynamic process of autophagy: autophagic flux refers to the whole process of autophagy, including autophagosome formation, maturation, fusion with lysosomes, subsequent breakdown and the release of macromolecules back into the cytosol (Zhang X J, Chen S, Huang K X, Le W D. Why should autophagic flux be assessed? Acta Pharmacol Sin. 2013 May; 34(5): 595-9. doi: 10.1038/aps.2012.184. Epub 2013 Mar. 11). Compounds that stimulate autophagic flux stimulate the dynamic process of autophagy (the whole process of autophagy).
LC3b is a protein found in the membrane of autophagosomes which has been used to generate genetic reporters of autophagy in cells. In these systems a tandem fusion of LC3b is engineered with two fluorescent proteins of different wavelengths: one which is acid sensitive (for example eGFP, which fluoresces green) and the other which is acid insensitive (for example RFP, which fluoresces red). Cells expressing RFP-eGFP-hLC3b can be examined using fluorescent microscopy: the autophagosomes present will fluoresce in both channels (either yellow in an overlay of both channels or puncta that are present in both the individual red and green channels) but the autolysosomes present will fluoresce in the RFP (red) channel only. Using a fluorescent microscope, the number of autophagosomes and autolysosomes can be counted, allowing for the monitoring of both the induction of autophagy (total puncta count) and the rate of autophagic flux (ratio of red-only to red-and-green puncta). The influence of small molecules on autophagy induction and flux can be assessed using this system by comparison to a non-treated control.
Representative Procedure: Human osteosarcoma U2OS cells stably expressing RFP-eGFP-hLC3b were seeded (10,000 cells/well) into a 96-well glass-bottom plate (Cell Carrier Ultra, Perkin Elmer) in DMEM Glutamax media (Gibco) supplemented with 10% Fetal Bovine Serum (FBS) and antibiotics (100 u/ml penicillin, 100 μg/ml streptomycin, Invitrogen), then incubated overnight in a humified atmosphere at 37° C. and 5% CO2. The cells were then treated with the compounds of interest, dissolved in DMSO, in a duplicated 5- or 10-point dose-response. 8 wells were treated with an equivalent volume of DMSO, 4 with 0.3 μM torin-1 as a positive control (MCE) and 4 wells with 0.4 μM torin-1 plus 0.2 μM bafilomycin (MCE) as a control for flux inhibition. The cells were returned to the incubator and the treatment continued for 24 hours. After treatment, the media was aspirated off and the cells fixed with a solution of 4% formaldehyde+1% glutaraldehyde (Sigma) in dPBS (plus magnesium and calcium, Gibco).
Fixation was allowed to proceed for 15 minutes at room temperature then the fixative solution discarded and replaced with PBS (Gibco) plus Hoescht 33342 ([…], Sigma). After 30 minutes the plates were imaged on an Opera Phenix confocal microscope (Perkin-Elmer) using a 40× water objective, collecting using DAPI, mCherry and GFP channels. Cells were detected based upon the staining of their nuclei with DAPI using the Harmony image analysis software (Perkin-Elmer) and the number of autophagosomes (GFP and RFP puncta) and autolysosomes (RFP only puncta) per cell were counted using the spot picking function within the software.

As to `CC(C)N(C(=O)c1csc(-c2cnn(-c3ccccc3)c2)n1)C1CC2(CNC2)C1` [Compound 319, N-{2-azaspiro[3.3]heptan-6-yl}-2-(1-phenyl-1H-pyrazol-4-yl)-N-(propan-2-yl)-1,3-thiazole-4-carboxamide], the activation at 0.8 µM in experiment [1] is 30 to 50%. Besides, in the experiment on SH-SY5Y cells, the “Fold change at compound concentration of 0.8 μM (acidic vesicle formation relative to DMSO-treated control)” value came to 2.4 and the “Fold change at compound concentration of 10 μM (acidic vesicle formation relative to DMSO-treated control)” value worked out at 2.7.

On to `CC(C)N(C(=O)c1csc(-c2cnn(-c3ccccc3)c2)n1)C1C[C@H]2CNC[C@H]2C1` (stereo partly drawn) [Compound 320, N-[(3aR,6aS)-octahydrocyclopenta[c]pyrrol-5-yl]-2-(1-phenyl-1H-pyrazol-4-yl)-N-(propan-2-yl)-1,3-thiazole-4-carboxamide], for which the “increase in acidic vesicle formation” value in experiment [1] is on record as “only a slight increase”. Further, in the experiment on SH-SY5Y cells, the “Fold change at compound concentration of 0.8 μM (acidic vesicle formation relative to DMSO-treated control)” value stood at 1.9 and the “Fold change at compound concentration of 10 μM (acidic vesicle formation relative to DMSO-treated control)” value came to 3.3.

Consider `CC(C)N(C(=O)c1ccc(-c2cnn(-c3ccc(F)cc3)c2)[nH]1)C1CCNCC1` [Compound 310, 5-[1-(4-fluorophenyl)-1H-pyrazol-4-yl]-N-(piperidin-4-yl)-N-(propan-2-yl)-1H-pyrrole-2-carboxamide], for which the “increase in acidic vesicle formation” value in experiment [1] is on record as “only a slight increase”. In addition, in the experiment with SH-SY5Y cells, the “Fold change at compound concentration of 0.8 μM (acidic vesicle formation relative to DMSO-treated control)” value came out at 1.9 and the “Fold change at compound concentration of 10 μM (acidic vesicle formation relative to DMSO-treated control)” value is reported as 4.5.

As to `CC(C)N(C(=O)c1csc(-c2cnn(-c3ccccc3Cl)c2)n1)[C@H]1CCNC1` [Compound 395, 2-[1-(2-chlorophenyl)-1H-pyrazol-4-yl]-N-(propan-2-yl)-N-[(3S)-pyrrolidin-3-yl]-1,3-thiazole-4-carboxamide], in experiment [2], the activity at 1 µM was determined as 137% and the activity at 10 µM is 191%.

With `CC(C)N(C(=O)c1csc(-c2cnn(C)c2)n1)[C@H]1CCNC1` [Compound 389, 2-(1-methyl-1H-pyrazol-4-yl)-N-(propan-2-yl)-N-[(3S)-pyrrolidin-3-yl]-1,3-thiazole-4-carboxamide], in experiment [2], the activity at 1 µM amounted to 101% and the activity at 10 µM turned out to be 108%.

As to `CC(C)N(C(=O)c1nc(-c2cnn(-c3ccccc3)c2)c[nH]1)[C@@H]1CCNC1` [Compound 345, 5-(1-phenyl-1H-pyrazol-4-yl)-N-(propan-2-yl)-N-[(3R)-pyrrolidin-3-yl]-1H-imidazole-2-carboxamide], in experiment [2], the activity at 1 µM worked out at 116% and the activity at 10 µM was 72%.

On to `CC(C)N(C(=O)c1ccc(-c2cnn(-c3ccccc3)c2)[nH]1)[C@@H]1CCNC1` [Compound 313, 5-(1-phenyl-1H-pyrazol-4-yl)-N-(propan-2-yl)-N-[(3R)-pyrrolidin-3-yl]-1H-pyrrole-2-carboxamide], for which, in experiment [1], the activation at 0.8 µM was > 100%. In the experiment on SH-SY5Y cells, the “Fold change at compound concentration of 0.8 μM (acidic vesicle formation relative to DMSO-treated control)” value was found to be 2.0 and the “Fold change at compound concentration of 10 μM (acidic vesicle formation relative to DMSO-treated control)” value is on record as 13.2.

Regarding `CC(C)N(C(=O)c1coc(-c2cnn(-c3ccccc3)c2)n1)[C@H]1CCNC1` [Compound 381, 2-(1-phenyl-1H-pyrazol-4-yl)-N-(propan-2-yl)-N-[(3S)-pyrrolidin-3-yl]-1,3-oxazole-4-carboxamide], in experiment [2], the activity at 1 µM is 118% and the activity at 10 µM stood at 179%.

As for `CC(C)N(C(=O)c1csc(-c2cnn(C(C)(C)C)c2)n1)[C@H]1CCNC1` [Compound 391, 2-(1-tert-butyl-1H-pyrazol-4-yl)-N-(propan-2-yl)-N-[(3S)-pyrrolidin-3-yl]-1,3-thiazole-4-carboxamide], in experiment [2], the activity at 1 µM worked out at 109% and the activity at 10 µM came to 161%.

Consider `CC(C)N(C(=O)c1ccc(-c2cnn(-c3ccccc3)c2)[nH]1)[C@H]1CCNC1` [Compound 314, 5-(1-phenyl-1H-pyrazol-4-yl)-N-(propan-2-yl)-N-[(3S)-pyrrolidin-3-yl]-1H-pyrrole-2-carboxamide], for which the activation at 0.8 µM in experiment [1] was > 100%. Besides, in the experiment on SH-SY5Y cells, the “Fold change at compound concentration of 0.8 μM (acidic vesicle formation relative to DMSO-treated control)” value came out at 2.0 and the “Fold change at compound concentration of 10 μM (acidic vesicle formation relative to DMSO-treated control)” value was 14.3.

As for `CC(C)N(C(=O)c1csc(-c2cnn(C(C)C)c2)n1)C1CCNCC1` [Compound 393, N-(piperidin-4-yl)-N-(propan-2-yl)-2-[1-(propan-2-yl)-1H-pyrazol-4-yl]-1,3-thiazole-4-carboxamide], in experiment [2], the activity at 1 µM was determined as 106% and the activity at 10 µM turned out to be 110%.

For the molecule `CC(C)N(C(=O)c1csc(-c2cnn(-c3ccccc3OC(F)(F)F)c2)n1)[C@H]1CCNC1` [Compound 396, N-(propan-2-yl)-N-[(3S)-pyrrolidin-3-yl]-2-{1-[2-(trifluoromethoxy)phenyl]-1H-pyrazol-4-yl}-1,3-thiazole-4-carboxamide], in experiment [2], the activity at 1 µM came out at 138% and the activity at 10 µM was found to be 78%.

Regarding `CCN(C(=O)c1csc(-c2cnn(-c3ccccc3)n2)n1)[C@H]1CCNC1` [Compound 364, N-ethyl-2-(2-phenyl-2H-1,2,3-triazol-4-yl)-N-[(3S)-pyrrolidin-3-yl]-1,3-thiazole-4-carboxamide], the activity at 1 µM in experiment [2] worked out at 166%.

`CC(C)N(C(=O)c1csc(-c2cnn(C(C)C)c2)n1)[C@H]1CCNC1` [Compound 390, N-(propan-2-yl)-2-[1-(propan-2-yl)-1H-pyrazol-4-yl]-N-[(3S)-pyrrolidin-3-yl]-1,3-thiazole-4-carboxamide]: in experiment [2], the activity at 1 µM turned out to be 106% and the activity at 10 µM was 116%.

Consider `O=C(c1csc(-c2cnn(-c3ccccc3OC(F)(F)F)c2)n1)N1C[C@H]2C[C@@H]1CN2` [Compound 376, (1R,4R)-2-(2-{1-[2-(trifluoromethoxy)phenyl]-1H-pyrazol-4-yl}-1,3-thiazole-4-carbonyl)-2,5-diazabicyclo[2.2.1]heptane], for which, in experiment [2], the activity at 1 µM was 176% and the activity at 10 µM amounted to 260%.

`CC(C)N(C(=O)c1csc(-c2cnn(-c3ccccc3)c2)n1)[C@H]1CCNC1` [Compound 311, 2-(1-phenyl-1H-pyrazol-4-yl)-N-(propan-2-yl)-N-[(3S)-pyrrolidin-3-yl]-1,3-thiazole-4-carboxamide]: the activation at 0.8 µM in experiment [1] lay in the range of 50 to 100%. In the experiment on SH-SY5Y cells, the “Fold change at compound concentration of 0.8 μM (acidic vesicle formation relative to DMSO-treated control)” value amounted to 2.3 and the “Fold change at compound concentration of 10 μM (acidic vesicle formation relative to DMSO-treated control)” value worked out at 3.5.

On to `CC(C)N(C(=O)c1csc(-c2cnn(C(C)(C)C)c2)n1)C1CCNCC1` [Compound 394, 2-(1-tert-butyl-1H-pyrazol-4-yl)-N-(piperidin-4-yl)-N-(propan-2-yl)-1,3-thiazole-4-carboxamide], for which, in experiment [2], the activity at 1 µM is 114% and the activity at 10 µM turned out to be 176%.

The values above are taken from patent US20250049776A1, “AUTOPHAGY INDUCING COMPOUNDS AND USES THEREOF, IN PARTICULAR FOR A SYSTEMIC TREATMENT OF DISEASES AND CONDITIONS” (Samsara Therapeutics Inc., priority 2021, published 2025).
